From publication PMC9467556, “Identification of novel pyrrolopyrimidine and pyrrolopyridine derivatives as potent ENPP1 inhibitors” (Journal of Enzyme Inhibition and Medicinal Chemistry, 2022)
Where a name gives a salt, the structure may show the parent alone.

Target: T1, human recombinant ENPP1 (Homo sapiens, UniProt P22413)
T1 construct: purchased R&D systems
T1 sequence (P22413 1-925): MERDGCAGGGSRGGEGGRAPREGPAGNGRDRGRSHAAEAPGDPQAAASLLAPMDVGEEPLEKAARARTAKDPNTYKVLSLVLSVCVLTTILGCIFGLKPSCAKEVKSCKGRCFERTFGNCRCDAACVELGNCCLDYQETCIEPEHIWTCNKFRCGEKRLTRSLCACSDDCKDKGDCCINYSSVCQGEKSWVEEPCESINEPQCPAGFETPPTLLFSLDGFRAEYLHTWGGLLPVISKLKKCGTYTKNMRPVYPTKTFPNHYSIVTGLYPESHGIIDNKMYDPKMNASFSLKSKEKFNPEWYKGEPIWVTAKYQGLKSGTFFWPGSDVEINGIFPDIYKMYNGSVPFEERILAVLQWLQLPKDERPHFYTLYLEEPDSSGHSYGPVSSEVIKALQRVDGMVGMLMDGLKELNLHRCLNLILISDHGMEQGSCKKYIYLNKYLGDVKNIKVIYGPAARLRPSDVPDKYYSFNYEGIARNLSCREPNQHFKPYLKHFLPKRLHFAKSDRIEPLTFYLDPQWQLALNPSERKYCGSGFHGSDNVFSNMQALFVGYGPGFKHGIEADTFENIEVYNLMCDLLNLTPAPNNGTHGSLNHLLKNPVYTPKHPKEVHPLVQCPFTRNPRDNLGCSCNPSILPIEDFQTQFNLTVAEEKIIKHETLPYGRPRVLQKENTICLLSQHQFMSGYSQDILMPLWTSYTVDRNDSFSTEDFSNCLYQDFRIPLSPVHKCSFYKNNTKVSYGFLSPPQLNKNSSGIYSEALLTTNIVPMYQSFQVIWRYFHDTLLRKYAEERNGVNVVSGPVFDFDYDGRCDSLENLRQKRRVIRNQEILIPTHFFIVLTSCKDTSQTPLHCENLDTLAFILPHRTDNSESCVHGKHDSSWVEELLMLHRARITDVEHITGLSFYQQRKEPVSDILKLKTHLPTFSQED
Test: in vitro recombinant human ENPP1 enzymatic assay (AMP-Glo, cGAMP substrate)
Format: biochemical
Conditions: for % inhibition: ENPP1, test concentration not given; for IC50: average ± SD from two or three independent repeats
From the text: ENPP1 hydrolyses nucleotides or nucleotide derivatives and produces nucleoside-5′-monophosphates and pyrophosphates. ENPP1 also hydrolyses 2′3′-cGAMP and produces 5′-adenosine monophosphate (AMP) and 5′ guanosine monophosphate (GMP). The produced AMP from the reaction is detected using the AMP-Glo® kit (Promega). The assay kit consists of two reagents; one to terminate the AMP-generating enzymatic reaction, remove ATP and convert AMP produced into ADP, and a second reagent to convert ADP to ATP, which is used to generate a luminescence in a luciferase reaction. The amount of light measured is proportional to the amount of AMP produced by ENPP1.
The final assay reaction mixture contains a buffer of 50 mM Tris (pH 8.5), 250 mM NaCl, 0.5 mM CaCl2, 1 μM ZnCl2, 5% glycerol and 1% DMSO. Serially diluted ENPP1 inhibitors (usually range from 10 μM to 0.5 nM) are pre-incubated with human recombinant ENPP1 enzyme (R&D systems) at 3 ng/reaction for 5–10 min at room temperature (RT). The reaction is initiated by adding cGAMP (at final concentration of 5 μM) and incubating for 90 min at 37 °C. At the end of incubation, the reaction is stopped by adding 10 μL of AMP-Glo reagent I and followed by incubation at RT for one hour. After incubation, 20 μL of AMP detection solution (mixture of AMP-Glo II reagent and Kinase-Glo one at 1:100 ratio) is added and incubated at RT for one hour. The luminescence signal generated is measured using the ClarioStar plate reader (BMG Labtech). Maximal activity control (containing enzyme and substrate in presence of 1% DMSO only; MAX) and background control (containing substrate and 1% DMSO; MIN) are evaluated simultaneously. In each experiment, serially diluted reference ENPP1 inhibitor is tested together. The IC50 values for % remaining activity versus compound concentration are determined by fitting the inhibition curves using a three-parameter variable method in GraphPad Prism® software. Triplicate wells are run at each inhibitor concentration and averaged IC50 value for each compound is calculated.

Compound	% inhibition (Table 2) [%]	IC50 (Table 2) [nM]	% inhibition (Table 1) [%]	IC50 (Table 1) [nM]
NS(=O)(=O)NCc1cccc(-c2ncnc3[nH]ccc23)c1 [25g, N-(3-(7H-Pyrrolo[2,3-d]pyrimidin-4-yl)benzyl)methanesulfamide hydrochloride]	53	4769 ± 0.455	–	–
NS(=O)(=O)NCCC1CCN(c2ncnc3[nH]ccc23)CC1 [18a, N-(2–(1-(7H-Pyrrolo[2,3-d]pyrimidin-4-yl)piperidin-4-yl)ethyl)methanesulfamide hydrochloride]	–	–	99	–
Cl.O=S(=O)(NCC1CCN(c2ncnc3[nH]ccc23)CC1)c1cccs1 [20a, N-((1-(7H-Pyrrolo[2,3-d]pyrimidin-4-yl)piperidin-4-yl)methyl)thiophene-2-sulfonamide hydrochloride]	–	–	37	–
CC(NS(N)(=O)=O)c1ccc(-c2ncnc3[nH]ccc23)cc1 (stereo not drawn) [25j, N-(1–(4-(7H-Pyrrolo[2,3-d]pyrimidin-4-yl)phenyl)ethyl)methanesulfamide hydrochloride]	100	–	–	–
CC(C)n1ccc2c(N3CCC(CNS(N)(=O)=O)CC3)ncnc21 [18e, N-((1–(7-Isopropyl-7H-pyrrolo[2,3-d]pyrimidin-4-yl)piperidin-4-yl)methyl)methanesulfamide hydrochloride]	–	–	75	20660 ± 5.02
Cl.O=S(=O)(NCC1CCN(c2ncnc3[nH]ccc23)CC1)C1CC1 [20c, N-((1-(7H-Pyrrolo[2,3-d]pyrimidin-4-yl)piperidin-4-yl)methyl)cyclopropanesulfonamide hydrochloride]	–	–	22	–
CC(C)(NS(N)(=O)=O)c1ccc(-c2ncnc3[nH]ccc23)cc1 [25h, N-(2–(4-(7H-Pyrrolo[2,3-d]pyrimidin-4-yl)phenyl)propan-2-yl)methanesulfamide hydrochloride]	98	1466 ± 0.044	–	–
NS(=O)(=O)NCC1CCN(c2ncnc3c2ccn3Cc2ccccc2)CC1 [18j, N-((1–(7-Benzyl-7H-pyrrolo[2,3-d]pyrimidin-4-yl)piperidin-4-yl)methyl)methanesulfamide hydrochloride]	–	–	17	–
Cc1c[nH]c2ncnc(N3CCC(CNS(N)(=O)=O)CC3)c12 [18m, N-((1–(5-Methyl-7H-pyrrolo[2,3-d]pyrimidin-4-yl)piperidin-4-yl)methyl)methanesulfamide hydrochloride]	–	–	94	462 ± 0.17
Cc1cc2c(N3CCC(CNS(N)(=O)=O)CC3)ncnc2[nH]1 [18n, N-((1–(6-Methyl-7H-pyrrolo[2,3-d]pyrimidin-4-yl)piperidin-4-yl)methyl)methanesulfamide hydrochloride]	–	–	99	218 ± 0.019
NS(=O)(=O)NCC1CCN(c2ncnc3[nH]ccc23)CC1 [18c, N-((1–(7H-Pyrrolo[2,3-d]pyrimidin-4-yl)piperidin-4-yl)methyl)methanesulfamide hydrochloride]	–	–	100	19 ± 0.016
Cc1ccc(S(=O)(=O)NCC2CCN(c3ncnc4[nH]ccc34)CC2)cc1.Cl [20b, N-((1-(7H-Pyrrolo[2,3-d]pyrimidin-4-yl)piperidin-4-yl)methyl)-4-methylbenzenesulfonamide hydrochloride]	–	–	62	–
NS(=O)(=O)NCC1CCN(c2ncnc3c2ccn3-c2ccccc2)CC1 [18g, N-((1–(7-Phenyl-7H-pyrrolo[2,3-d]pyrimidin-4-yl)piperidin-4-yl)methyl)methanesulfamide hydrochloride hydrochloride]	–	–	99	298 ± 0.041
NS(=O)(=O)NCC1CCN(c2ncnc3c2ccn3C2CC2)CC1 [18f, N-((1–(7-Cyclopropyl-7H-pyrrolo[2,3-d]pyrimidin-4-yl)piperidin-4-yl)methyl)methanesulfamide hydrochloride hydrochloride]	–	–	100	74 ± 0.052
NS(=O)(=O)NCc1ccc(-c2ncnc3[nH]ccc23)cc1F [25c, N-(2-Fluoro-4-(7H-pyrrolo[2,3-d]pyrimidin-4-yl)benzyl)methanesulfamide hydrochloride]	73	–	–	–
NS(=O)(=O)NCC1CCN(c2ncnc3c2ccn3-c2cccnc2)CC1 [18l, N-((1-(7-(Pyridin-3-yl)-7H-pyrrolo[2,3-d]pyrimidin-4-yl)piperidin-4-yl)methyl)methanesulfamide hydrochloride]	–	–	71	1853 ± 1.16
NS(=O)(=O)NCC1CCN(c2ncnc3c2ccn3-c2ccc(F)cc2)CC1 [18h, N-((1–(7-(4-Fluorophenyl)-7H-pyrrolo[2,3-d]pyrimidin-4-yl)piperidin-4-yl)methyl)methanesulfamide hydrochloride]	–	–	54	–
CC(NS(N)(=O)=O)C1CCN(c2ncnc3[nH]ccc23)CC1 (stereo not drawn) [18o, N-(1–(1-(7H-Pyrrolo[2,3-d]pyrimidin-4-yl)piperidin-4-yl)ethyl)methanesulfamide hydrochloride]	–	–	99	250 ± 0.028
NS(=O)(=O)NCc1ccc(-c2ncnc3[nH]ccc23)cc1 [25d, N-(4-(7H-Pyrrolo[2,3-d]pyrimidin-4-yl)benzyl)methanesulfamide hydrochloride]	76	7597 ± 1.27	–	–
Cn1ccc2c(N3CCC(CNS(N)(=O)=O)CC3)ncnc21 [18d, N-((1–(7-Methyl-7H-pyrrolo[2,3-d]pyrimidin-4-yl)piperidin-4-yl)methyl)methanesulfamide hydrochloride]	–	–	100	51.4 ± 0.002
NS(=O)(=O)Nc1ccc(-c2ccnc3[nH]ccc23)cc1 [25b, N-(4-(1H-Pyrrolo[2,3-b]pyridin-4-yl)phenyl)methanesulfamide hydrochloride]	33	–	–	–
CSc1nc(N2CCC(CCNS(N)(=O)=O)CC2)c2cc[nH]c2n1 [18b]	–	–	34	21610 ± 2.16
Cn1ccc2c(-c3ccc(CNS(N)(=O)=O)cc3)ncnc21 [25e, N-(4-(7-Methyl-7H-pyrrolo[2,3-d]pyrimidin-4-yl)benzyl)methanesulfamide hydrochloride]	72	–	–	–
NS(=O)(=O)NCC1CCN(c2ncnc3c2ccn3-c2ccoc2)CC1 [18k, N-((1–(7-(Furan-3-yl)-7H-pyrrolo[2,3-d]pyrimidin-4-yl)piperidin-4-yl)methyl)methanesulfamide hydrochloride]	–	–	100	54.1 ± 0.001
COc1ccc(-n2ccc3c(N4CCC(CNS(N)(=O)=O)CC4)ncnc32)cc1 [18i, N-((1–(7-(4-Methoxyphenyl)-7H-pyrrolo[2,3-d]pyrimidin-4-yl)piperidin-4-yl)methyl)methanesulfamide hydrochloride]	–	–	37	–
NS(=O)(=O)NC1CCN(c2ncnc3[nH]ccc23)CC1 [18q, N-(1-(7H-Pyrrolo[2,3-d]pyrimidin-4-yl)piperidin-4-yl)methanesulfamide hydrochloride]	–	–	71	3323 ± 0.298
NS(=O)(=O)Nc1ccc(-c2ncnc3[nH]ccc23)cc1 [25a]	0	–	–	–
